Assay results reported in publication PMC3477264 (ACS chemical biology, 2012).

Tests used:
[1] = molecular target: T1, cyclodiphosphate synthase IspF (Escherichia coli, UniProt P62617); assay: HPLC-based assay, […] inhibition of the IspF-MEP complex at […] FDP; format: biochemical; conditions: read-out: % inhibition at 500 μM
T1 sequence (P62617 1-159): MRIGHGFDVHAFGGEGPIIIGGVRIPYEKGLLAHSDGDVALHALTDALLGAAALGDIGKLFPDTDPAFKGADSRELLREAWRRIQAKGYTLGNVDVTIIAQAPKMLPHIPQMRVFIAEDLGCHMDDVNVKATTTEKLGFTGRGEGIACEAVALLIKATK

[2] = molecular target: T1, cyclodiphosphate synthase IspF; assay: HPLC-based assay of CMP formation by purified IspF; format: biochemical

| SMILES | inhibition at 500 µM [1] | AC50 [2] |
| --- | --- | --- |
| CC(C)=CCC/C(C)=C/CC/C(C)=C/CO[P@@](=O)(O)OP(=O)(O)O (stereo in doubt) [FDP, farnesyl diphosphate] | 43% |  |
| C[C@](O)(CO)[C@H](O)CO [ME, 2C-methyl-D-erythritol] |  | 106 ± 14 µM |
| C[C@](O)(CO)[C@H](O)COP(=O)(O)O [MEP, 2C-methyl-D-erythritol 4-phosphate] |  | 133 ± 33 µM |
